Values of other authors in patent US7834030B2, “Phenyl-[1,2,4]-oxadiazol-5-one derivatives, pharmaceutical compositions and therapeutic use thereof” (Sanofi-Aventis, priority 2005, dated 2010).
Like-named read-outs stand apart in the source and are kept apart here.

Experiments:
[1] = rhesus monkeys; cited from earlier work
[2] = cynomolgus monkeys; cited from earlier work
[3] = healthy volunteers, two weeks clinical trials; cited from earlier work
[4] = obese, insulin resistant rhesus monkeys; cited from earlier work
[5] = diabetic animal model; cited from earlier work

CCCc1c(OCCCSc2nnc(SCC(=O)O)s2)ccc(C(C)=O)c1O [YM-16638]
plasma lipids [1]: significantly lowers
plasma lipids [2]: significantly lowers
plasma lipids [3]: acts in a similar manner

Cc1cc(SCc2sc(-c3ccc(C(F)(F)F)cc3)nc2C)ccc1OCC(=O)O [GW501516]
HDL-cholesterol [4]: raises
insulin levels [4]: decreases
plasma LDL-cholesterol [4]: decreases
triglycerides [4]: decreases

CCCc1c(OCCCOc2ccc(OCC(=O)O)cc2)ccc(C(C)=O)c1O [Example L-165041]
plasma cholesterol [5]: raises plasma cholesterol
